This is an account of results in BindingDB's records for doi:10.1021/jm970021c (Warner-Lambert, 1997).

Where only a bound is given, the exact number is not on record here.

The nature of this test: Agonist activation of human dopamine receptor stimulating mitogenesis in Dopamine receptor D4-transfected CHO pro-5 cells using [3H]thymidine as radioligand.
In turn, `N#Cc1ccccc1N1CCN(CNC(=O)c2cccc(Cl)c2)CC1` [3-Chloro-N-[4-(2-cyano-phenyl)-piperazin-1-ylmethyl]-benzamide] displayed an EC50 of 5.3 nM.
Compound `COc1ccccc1N1CCN(CNC(=O)c2cccc(Cl)c2)CC1` [3-Chloro-N-[4-(2-methoxy-phenyl)-piperazin-1-ylmethyl]-benzamide] had an EC50 of 15 nM.
Consider `O=C(NCN1CCN(c2ccccc2Cl)CC1)c1ccc(Cl)cc1` [4-Chloro-N-[4-(2-chloro-phenyl)-piperazin-1-ylmethyl]-benzamide], for which the EC50 was found to be 8.4 nM.
The figure for `N#Cc1ccccc1N1CCN(CNC(=O)c2ccc(Cl)cc2)CC1` [4-Chloro-N-[4-(2-cyano-phenyl)-piperazin-1-ylmethyl]-benzamide] is over 3.9 nM; for `COc1ccccc1N1CCN(CNC(=O)c2ccc(Cl)cc2)CC1` [4-Chloro-N-[4-(2-methoxy-phenyl)-piperazin-1-ylmethyl]-benzamide] it is 8.4 nM.
The figure for `Cc1cccc(C(=O)NCN2CCN(c3ccccc3Cl)CC2)c1` [N-[4-(2-Chloro-phenyl)-piperazin-1-ylmethyl]-3-methyl-benzamide] is 16 nM.
`Cc1ccc(C(=O)NCN2CCN(c3ccccc3Cl)CC2)cc1` [N-[4-(2-Chloro-phenyl)-piperazin-1-ylmethyl]-4-methyl-benzamide] had an EC50 of 218 nM.
In turn, `O=C(NCN1CCN(c2ccccc2Cl)CC1)c1ccccc1` [N-[4-(2-Chloro-phenyl)-piperazin-1-ylmethyl]-benzamide] gave an EC50 of 106 nM.
In turn, `Cc1ccc(C(=O)NCN2CCN(c3ccccc3C#N)CC2)cc1` [N-[4-(2-Cyano-phenyl)-piperazin-1-ylmethyl]-4-methyl-benzamide] gave an EC50 of 1.2 nM.
In turn, `N#Cc1ccccc1N1CCN(CNC(=O)c2ccccc2)CC1` [N-[4-(2-Cyano-phenyl)-piperazin-1-ylmethyl]-benzamide] returned an EC50 of 24 nM.
In turn, `COc1ccccc1N1CCN(CNC(=O)c2cccc(C)c2)CC1` [N-[4-(2-Methoxy-phenyl)-piperazin-1-ylmethyl]-3-methyl-benzamide] registered an EC50 of 13 nM.
`COc1ccccc1N1CCN(CNC(=O)c2ccc(C)cc2)CC1` [N-[4-(2-Methoxy-phenyl)-piperazin-1-ylmethyl]-4-methyl-benzamide] gave an EC50 of 3.4 nM.
`COc1ccccc1N1CCN(CNC(=O)c2ccccc2)CC1` [N-[4-(2-Methoxy-phenyl)-piperazin-1-ylmethyl]-benzamide] returned an EC50 of 31 nM.
